These results are taken from article PMC10247778, “PXL1 and SERKs act as receptor–coreceptor complexes for the CLE19 peptide to regulate pollen development” (Nature Communications, 2023).

The subject of one experiment is PXL1 (PXL1^LRR). As to the kind of experiment: Gel filtration-MALDI-TOF identification of peptides copurified with PXL1 LRR. The format is binding, Arabidopsis. As to conditions: PXL1^LRR incubated with synthesized peptide mixture (0.1 mg each), 10 mM Bis-Tris pH 6.0, 100 mM NaCl, on ice 1 h, Superdex 200. The method, then:
As part of an effort to identify cognate receptors for peptidyl ligands in Arabidopsis, a pool of synthetic CLE small peptides (Supplementary Table 1) was mixed with purified individual extracellular LRR domains of receptor-like kinases (RLKs). The putative RLK-ligand complexes were purified by gel-filtration, and the peptides were detected by mass spectrometry, as reported previously.
Purified PXL1^LRR protein (with buffer containing 10 mM Bis-Tris pH 6.0, 100 mM NaCl) was incubated with synthesized peptide mixture (0.1 mg for each; Supplementary Table 1) on ice for 1 h. Then, each mixture was subjected to gel filtration (Superdex 200, GE Healthcare) for analysis. The relevant peak fractions of PXL1^LRR were collected and 2 μl was used for analyzed by MALDI-TOF–mass spectrometry analysis.

For experiment [1], the target named is PXL2 LRR (Arabidopsis thaliana) (UniProt Q9M0G7). As to the kind of experiment: ITC. As to conditions: cited from earlier work.
Sequence of PXL2 LRR (Arabidopsis thaliana) (Q9M0G7 24-633): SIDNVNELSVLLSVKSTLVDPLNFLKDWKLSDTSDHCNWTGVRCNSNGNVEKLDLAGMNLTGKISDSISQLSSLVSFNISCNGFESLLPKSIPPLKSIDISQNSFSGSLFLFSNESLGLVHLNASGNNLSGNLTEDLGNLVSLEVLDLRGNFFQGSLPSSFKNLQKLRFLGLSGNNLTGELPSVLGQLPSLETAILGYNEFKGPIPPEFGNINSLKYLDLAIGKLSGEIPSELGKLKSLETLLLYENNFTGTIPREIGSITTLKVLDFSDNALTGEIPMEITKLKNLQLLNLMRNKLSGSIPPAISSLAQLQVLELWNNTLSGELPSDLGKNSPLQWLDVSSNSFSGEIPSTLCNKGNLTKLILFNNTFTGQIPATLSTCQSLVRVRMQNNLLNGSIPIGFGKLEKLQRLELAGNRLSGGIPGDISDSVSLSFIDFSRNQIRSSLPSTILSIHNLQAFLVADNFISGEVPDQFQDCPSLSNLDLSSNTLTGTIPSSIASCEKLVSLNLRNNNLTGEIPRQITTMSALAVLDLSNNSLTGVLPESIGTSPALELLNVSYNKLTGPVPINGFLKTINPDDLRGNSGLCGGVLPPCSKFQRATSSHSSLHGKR
Experiment [2] has as its target PXL1 LRR (Arabidopsis thaliana) (UniProt Q9FRS6). As to the kind of experiment: ITC. As to conditions: cited from earlier work.
In experiment [3] the target is PXY LRR (Arabidopsis thaliana) (UniProt Q9FII5). The experiment in a line: ITC. As to conditions: cited from earlier work.
Sequence of PXY LRR (Arabidopsis thaliana) (Q9FII5 30-652): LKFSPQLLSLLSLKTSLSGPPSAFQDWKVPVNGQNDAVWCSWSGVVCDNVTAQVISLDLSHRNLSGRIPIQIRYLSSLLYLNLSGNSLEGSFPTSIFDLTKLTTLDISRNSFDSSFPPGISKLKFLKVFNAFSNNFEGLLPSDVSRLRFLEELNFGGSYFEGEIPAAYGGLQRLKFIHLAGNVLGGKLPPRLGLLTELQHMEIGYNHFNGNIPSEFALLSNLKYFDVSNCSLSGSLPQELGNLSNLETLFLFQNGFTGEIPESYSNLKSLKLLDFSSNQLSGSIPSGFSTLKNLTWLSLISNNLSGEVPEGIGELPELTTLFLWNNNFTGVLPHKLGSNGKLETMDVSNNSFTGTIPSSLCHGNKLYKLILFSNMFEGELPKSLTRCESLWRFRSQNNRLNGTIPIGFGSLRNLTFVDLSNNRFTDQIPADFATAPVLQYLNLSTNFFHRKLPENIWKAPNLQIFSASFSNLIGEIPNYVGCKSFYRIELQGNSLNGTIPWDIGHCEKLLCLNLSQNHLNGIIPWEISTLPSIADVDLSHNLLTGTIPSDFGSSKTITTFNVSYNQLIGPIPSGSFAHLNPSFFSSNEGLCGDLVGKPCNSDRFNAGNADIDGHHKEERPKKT
In another experiment the test system is PXL1 (PXL1-FLAG). The experiment in a line: In vivo phosphorylation assay, Phos-tag SDS-PAGE and western blot. The format is cell-based, Arabidopsis. As to conditions: 10-day-old pPXL1::PXL1-FLAG seedlings, 20 µM peptide, 1.5 h; Phos-tag gel, anti-FLAG; λpp control. The method, then:
Ten-day-old […] transgenic seedlings were tested to observe the phosphorylation status of PXL1. The seedlings were cultured in 1/2 MS liquid medium treated with mock or 20 μM CLE19, CLE19[…] or CLV3 peptide for 1.5 h and then ground to a fine powder in liquid N2 for protein extraction performed as described above. The extracted protein was analyzed by Phos-tag (Wako) gel and immunoblotting using anti-FLAG (GNI) antibody. The anti-HSP70 (Abmart) antibody was used to determine the amount of input protein. Anti-FLAG beads (Abmart) were used for immunoprecipitation to purify the PXL1-FLAG protein. Anti-pS/T (ECM) was used to detect the phosphorylation status of the PXL1 protein after CLE19 treatment. The seedling protein extracted was also treated with λpp (NEB) at 30 °C for 0.5 h and then analyzed by anti-FLAG and anti-HSP antibodies.

For experiment [4], the target named is PXL1^∆KD–SERK1^∆KD interaction. The experiment in a line: Co-IP PXL1^∆KD-SERK1^∆KD in Nicotiana benthamiana. Type of experiment: cell-based, Arabidopsis. As to conditions: N. benthamiana leaves, with or without peptide 3–4 h; GFP-Trap, anti-Myc. The text has this:
The 825 bp SERK1 (SERK1^∆KD), 834 bp SERK2 (SERK2^∆KD) and the 927 bp SERK3/BAK1 (BAK1^∆KD) coding regions were amplified with the primers listed in Supplementary Table 3. The PCR products of SERK1^∆KD, SERK2^∆KD and BAK1^∆KD were inserted into the pCAMBIA1306-GFP vector at the KpnI and SalI sites to generate the pCAMBIA1306-SERK1^∆KD/2/BAK1^∆KD-GFP constructs. pCAMBIA1306-PXL^∆KD -MYC, pCAMBIA1306-SERK1^∆KD GFP and pCAMBIA1306-BAK1^∆KD-GFP were transferred into the Agrobacterium tumefaciens GV3101 strain.
The cultures were grown overnight in 2 x YT medium and resuspended to optical density at 600 nm (OD600) = 2.0 in an injection buffer (150 μM acetosyringone, 10 mM MgCl2 and 10 mM MES). […]
Total proteins were extracted from the N. benthamiana leaves with the extraction buffer (50 mM Tris-HCl (pH 7.5), 150 mM NaCl, 5 mM EDTA, 5% glycerol, 1% Triton X-100 with protease inhibitor, phosphatase inhibitor, and PMSF) and then incubated with GFP-Trap beads (Chromo Tek) at 4 °C for 4 h, followed by two washes (50 mM Tris-HCl (pH 7.5), 150 mM NaCl, 5 mM EDTA, 5% glycerol, and 0.01% Triton X-100). Proteins were separated on SDS-PAGE gels and detected by anti-Myc (GNI) antibody via western blots.

The target of experiment [5] is PXL2 (protein used for ITC) (Arabidopsis, UniProt Q9M0G7 24-1013). The experiment in a line: ITC; CLE19 with PXL2 and with PXY; conditions not told for these proteins. The following applies: both partners purified.
Sequence of PXL2 (protein used for ITC) (Q9M0G7 24-1013): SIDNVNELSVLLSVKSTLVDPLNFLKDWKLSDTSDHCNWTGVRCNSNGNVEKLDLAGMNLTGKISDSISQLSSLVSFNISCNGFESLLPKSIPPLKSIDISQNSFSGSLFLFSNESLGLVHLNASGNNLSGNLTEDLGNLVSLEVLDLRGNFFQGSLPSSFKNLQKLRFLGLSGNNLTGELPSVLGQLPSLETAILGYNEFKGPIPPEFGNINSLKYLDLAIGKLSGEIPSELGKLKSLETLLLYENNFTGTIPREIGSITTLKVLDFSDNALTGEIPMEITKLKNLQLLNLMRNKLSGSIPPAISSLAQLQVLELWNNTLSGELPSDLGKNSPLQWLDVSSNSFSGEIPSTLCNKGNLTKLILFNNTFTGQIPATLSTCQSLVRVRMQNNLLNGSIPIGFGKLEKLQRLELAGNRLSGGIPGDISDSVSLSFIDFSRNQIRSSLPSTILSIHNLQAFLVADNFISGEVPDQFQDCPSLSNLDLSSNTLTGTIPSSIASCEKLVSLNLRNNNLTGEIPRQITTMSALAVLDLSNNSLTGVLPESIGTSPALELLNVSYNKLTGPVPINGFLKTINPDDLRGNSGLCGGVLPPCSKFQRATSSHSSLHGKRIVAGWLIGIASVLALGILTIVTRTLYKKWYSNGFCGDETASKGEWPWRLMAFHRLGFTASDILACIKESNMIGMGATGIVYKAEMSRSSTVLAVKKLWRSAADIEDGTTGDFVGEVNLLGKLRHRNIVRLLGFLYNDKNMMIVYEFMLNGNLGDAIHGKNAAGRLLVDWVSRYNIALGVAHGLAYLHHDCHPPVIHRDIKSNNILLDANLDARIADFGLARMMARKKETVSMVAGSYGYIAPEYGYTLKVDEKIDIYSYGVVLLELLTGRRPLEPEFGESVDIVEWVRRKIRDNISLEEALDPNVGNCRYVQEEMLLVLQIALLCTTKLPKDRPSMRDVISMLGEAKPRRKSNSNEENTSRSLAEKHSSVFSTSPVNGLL
In experiment [6] the target is T1, PXL1^LRR (extracellular LRR domain of PXY-LIKE1, residues 1-639, 6xHis) (Arabidopsis, UniProt Q9FRS6 24-639).
T1 construct: signal peptide in the construct; PXL1 (PXY-LIKE1), Arabidopsis, AT1G08590, LRR domains, residues 1-639; also called PXL1 ectodomain; PXL1^LRR-6×His; source: High Five cells, purified (Ni-NTA, size-exclusion chromatography)
T1 sequence (looked up): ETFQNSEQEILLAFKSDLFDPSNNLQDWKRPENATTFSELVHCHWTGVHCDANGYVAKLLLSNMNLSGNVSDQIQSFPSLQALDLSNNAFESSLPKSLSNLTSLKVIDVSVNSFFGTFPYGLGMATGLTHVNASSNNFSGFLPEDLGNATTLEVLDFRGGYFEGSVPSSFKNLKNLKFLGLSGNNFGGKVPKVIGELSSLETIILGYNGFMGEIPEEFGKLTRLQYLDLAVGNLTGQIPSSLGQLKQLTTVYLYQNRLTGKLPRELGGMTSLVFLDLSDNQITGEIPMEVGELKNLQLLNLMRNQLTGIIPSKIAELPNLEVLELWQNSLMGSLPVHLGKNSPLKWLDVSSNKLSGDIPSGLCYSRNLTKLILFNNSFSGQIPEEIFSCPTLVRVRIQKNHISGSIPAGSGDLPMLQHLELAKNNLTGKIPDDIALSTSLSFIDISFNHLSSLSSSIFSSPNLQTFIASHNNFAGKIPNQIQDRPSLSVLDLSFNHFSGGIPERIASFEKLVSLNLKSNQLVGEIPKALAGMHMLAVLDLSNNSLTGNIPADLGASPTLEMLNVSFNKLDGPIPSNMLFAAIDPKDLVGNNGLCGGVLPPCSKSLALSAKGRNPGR
As to the kind of experiment: ITC; ITC200; 1 mM CLE19 titrated into 0.1 mM PXL1^LRR in the cell, 20 injections; 10 mM Bis-Tris pH 6.0, 100 mM NaCl; 25 °C. As to conditions: both partners purified.

“Also recorded” adds a separate entry of the source. Ends that are not written are not given here.

Consider “CLE40: CLE peptide (RQVPTGSDPLHH; ends and bridges not checked; UniProt Q9LXU0 62-73, looked up)”, for which the “CLE peptide copurified with PXL1” value with PXL1 (PXL1^LRR) is given as “CLE19 was the only CLE peptide that co-purified with PXL1”.
Same read-out and setting: under “CLE18: CLE peptide (RQIPTGPDPLHN; ends and bridges not checked; UniProt Q3ECH9 37-48, looked up)” stands “CLE19 was the only CLE peptide that co-purified with PXL1”.
Same read-out and setting: under “CLE46: CLE peptide (HKHPSGPNPTGN; ends and bridges not checked; UniProt Q8LDN4 58-69, looked up)” stands “CLE19 was the only CLE peptide that co-purified with PXL1”; under “CLE25: CLE peptide (RKVPNGPDPIHN; ends and bridges not checked; UniProt Q8LFL4 58-69, looked up)”, “CLE19 was the only CLE peptide that co-purified with PXL1”; under “CLE43: CLE peptide (RRIPSSPDRLHN; ends and bridges not checked; UniProt Q6IWB1 85-96, looked up)”, “CLE19 was the only CLE peptide that co-purified with PXL1”.
“CLE6: synthetic CLE small peptide of the pool (RVSPGGPDPQHH; ends and bridges not checked; UniProt Q8S8N3 70-81, looked up)”: the “CLE peptide copurified with PXL1” value in the experiment on PXL1 (PXL1^LRR) was “CLE19 was the only CLE peptide that co-purified with PXL1; also recorded: but not CLV3, CLE3, CLE6, and others”.
Turning to “CLE45: CLE peptide (RRVRRGSDPIHN; ends and bridges not checked; UniProt Q6IWA9 107-118, looked up)”, the “CLE peptide copurified with PXL1” value in the experiment with PXL1 (PXL1^LRR) is listed as “CLE19 was the only CLE peptide that co-purified with PXL1”.
Regarding “CLE12: CLE peptide (RRVPSGPNPLHH; ends and bridges not checked; UniProt Q29PU4 107-118, looked up)”, in the experiment with PXL1 (PXL1^LRR), the “CLE peptide copurified with PXL1” value is given as “CLE19 was the only CLE peptide that co-purified with PXL1”.
Take CLE41 (from UniProt Q84W98): the Kd in experiment [1] was 9900 nM; in experiment [2], 2100 nM; in experiment [3] it was 33 nM.
As to “CLE11: CLE peptide (RVVPSGPNPLHH; ends and bridges not checked; UniProt Q3ECU1 88-99, looked up)”, in the experiment on PXL1 (PXL1^LRR), the “CLE peptide copurified with PXL1” value was “CLE19 was the only CLE peptide that co-purified with PXL1”.
With “CLE16: CLE peptide (RLVHTGPNPLHN; ends and bridges not checked; UniProt Q8S8M2 92-103, looked up)”, the “CLE peptide copurified with PXL1” value in the experiment on PXL1 (PXL1^LRR) is recorded as “CLE19 was the only CLE peptide that co-purified with PXL1”.
With “CLE19G6T: functionally inactive CLE19G6T (RVIPTTPNPLHN; ends and bridges not checked; UniProt Q8W261 62-73, looked up, variant G6T)”, the “PXL1 phosphorylation (Phos-tag migration)” value in the experiment on PXL1 (PXL1-FLAG) is given as “Neither CLE19G6T nor CLV3 induced the phosphorylation-related migration of PXL1; also recorded: PXL1 phosphorylation was not induced; also recorded: lost the ability of inducing PXL1 phosphorylation”.
Turning to “CLE3: synthetic CLE small peptide of the pool (RLSPGGPDPRHH; ends and bridges not checked; UniProt Q3EDH8 72-83, looked up)”, the “CLE peptide copurified with PXL1” value with PXL1 (PXL1^LRR) was “CLE19 was the only CLE peptide that co-purified with PXL1; also recorded: but not CLV3, CLE3, CLE6, and others”.
For “CLE8: CLE peptide (RRVPTGPNPLHH; ends and bridges not checked; UniProt Q2V4E2 61-72, looked up)”, the “CLE peptide copurified with PXL1” value in the experiment on PXL1 (PXL1^LRR) is “CLE19 was the only CLE peptide that co-purified with PXL1”.
As for “CLE20: CLE peptide (RKVKTGSNPLHN; ends and bridges not checked; UniProt Q3EDI6 70-81, looked up)”, in the experiment on PXL1 (PXL1^LRR), the “CLE peptide copurified with PXL1” value was “CLE19 was the only CLE peptide that co-purified with PXL1”.
Take “CLE9: CLE peptide (RLVPSGPNPLHN; ends and bridges not checked; UniProt Q9FZE4 109-120, looked up)”: the “CLE peptide copurified with PXL1” value in the experiment with PXL1 (PXL1^LRR) is listed as “CLE19 was the only CLE peptide that co-purified with PXL1”.
For CLAVATA3 [CLV3], in the experiment on PXL1 (PXL1-FLAG), the “PXL1 phosphorylation (Phos-tag migration)” value is on record as “Neither CLE19G6T nor CLV3 induced the phosphorylation-related migration of PXL1; also recorded: PXL1 phosphorylation was not induced”. The “PXL1^∆KD-SERK1^∆KD interaction (co-IP)” value in experiment [4] is “no such interaction was detected in the absence of CLE19 or the presence of CLV3”. Moreover, in the experiment on PXL1 (PXL1^LRR), the “CLE peptide copurified with PXL1” value is “interaction with PXL1 was not detected; also recorded: CLE19 was the only CLE peptide that co-purified with PXL1; also recorded: but not CLV3, CLE3, CLE6, and others”.
With “CLE14: CLE peptide (RLVPKGPNPLHN; ends and bridges not checked; UniProt Q3ECJ5 68-79, looked up)”, in the experiment on PXL1 (PXL1^LRR), the “CLE peptide copurified with PXL1” value is given as “CLE19 was the only CLE peptide that co-purified with PXL1”.

B1: CLAVATA3/EMBRYO SURROUNDING REGION-RELATED 19 (CLE19) peptide (peptide)
chain: RVIPTGPNPLHN
modifications: ends and bridges not checked
In turn, B1 yielded a Kd in experiment [5] of 714 nM.

B2: CLAVATA3/EMBRYO SURROUNDING REGION-RELATED 19 (CLE19) peptide (peptide)
chain: RVIPTGPNPLHN
B2: in experiment [6], the Kd is ~346 nM.
